Laboratory results: the supplement of paper PMC11061612

Tests used:
[1] = tested on: ESO51 (Esophageal Adenocarcinoma); assay: Bliss excess, mean over the matrix (fraction); higher = more synergy
Procedure, shortened: (§1)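 Cell lines grown in DMEM/F12 or RPMI with 10% FBS were plated in 1536-well plates and held 24 hours at 37°C, 5% CO2 before 72 hours of exposure to two-drug dose matrices, with DMSO typically at 0.2%. CellTiter-Glo 2.0 luminescence gave viability, which was converted to inhibition. Vehicle wells were set to 0 and blank wells to 1. Combination Emax is the second-highest inhibition in the matrix, and Bliss excess is the observed combination effect minus the expected EA + EB − EA·EB, where EA and EB are the single-agent effects.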

[2] = tested on: H9 (T-Cell Non-Hodgkin's Lymphoma); assay: as above
Procedure, shortened: as §1

[3] = tested on: IM-95 (Gastric Carcinoma); assay: as above
Procedure, shortened: as §1

[4] = tested on: NCCIT (Other Solid Carcinomas); assay: as above
Procedure, shortened: as §1

[5] = tested on: KP-3 (Pancreatic Carcinoma); assay: as above
Procedure, shortened: as §1

[6] = tested on: SU-DHL-5 (B-Cell Non-Hodgkin's Lymphoma); assay: as above
Procedure, shortened: as §1

[7] = tested on: KY821 (Acute Myeloid Leukemia); assay: as above
Procedure, shortened: as §1

[8] = tested on: NCI-H526 (Small Cell Lung Carcinoma); assay: as above
Procedure, shortened: as §1

[9] = tested on: CHSA8926 (Chondrosarcoma); assay: as above
Procedure, shortened: as §1

[10] = tested on: T-T (Esophageal Squamous Cell Carcinoma); assay: as above
Procedure, shortened: as §1

[11] = tested on: MN-60 (B-Lymphoblastic Leukemia); assay: as above
Procedure, shortened: as §1

[12] = tested on: JHH-4 (Hepatocellular Carcinoma); assay: as above
Procedure, shortened: as §1

G-361 (Melanoma) = assay: as above
Procedure, shortened: as §1

[13] = tested on: SUP-B15 (B-Lymphoblastic Leukemia); assay: as above
Procedure, shortened: as §1

[14] = tested on: HCC1187 (Breast Carcinoma); assay: as above
Procedure, shortened: as §1

[15] = tested on: NCI-H3122 (Lung Adenocarcinoma); assay: as above
Procedure, shortened: as §1

[16] = tested on: PC-3 (Prostate Carcinoma); assay: as above
Procedure, shortened: as §1

NCI-H2731 (Mesothelioma) = assay: as above
Procedure, shortened: as §1

[17] = tested on: MOLM-13 (Acute Myeloid Leukemia); assay: as above
Procedure, shortened: as §1

[18] = tested on: 8505C (Thyroid Gland Carcinoma); assay: combination Emax (second highest fraction inhibited in the dose matrix, 72 h); higher = more inhibition; extreme values may be limits of the assay
Procedure, shortened: as §1
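Wherever Bliss excess, mean over the matrix is given: after 72 h of two-drug dosing.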

Work on `Cc1cc2ncnn2cc1Nc1ncc2c(n1)n(C1CCOCC1)c(=O)n2C` [AZD7648] + CCN(CCO)CCCOc1ccc2c(Nc3cc(CC(=O)Nc4cccc(F)c4)[nH]n3)ncnc2c1 [AZD2811] (first compound max 10 µM, 7x7, partner max 1 µM) yielded a Bliss excess [1] of -0.0098, a Bliss excess [2] of -0.0378 and a Bliss excess [3] of 0.0835. The Bliss excess [4] was 0.0781, the Bliss excess [5] was 0.0126 and the Bliss excess [6] was -0.0094. The Bliss excess [7] was 0.139, the Bliss excess [8] was 0.0568 and the Bliss excess [9] was -0.0331. It also gave a Bliss excess [10] of 0.0089, a Bliss excess [11] of -0.0061 and a Bliss excess [12] of 0.0136. It also gave a Bliss excess (G-361 (Melanoma)) of 0.0453, a Bliss excess [13] of -0.0667 and a Bliss excess [14] of -0.0446. For the same compound, the Bliss excess [15] was 0.0558, the Bliss excess [16] was -0.0346 and the Bliss excess (NCI-H2731 (Mesothelioma)) was -0.0077. The Bliss excess [17] was -0.0314 and the “combination Emax” value [18] was 0.212.

For `Cc1cc2ncnn2cc1Nc1ncc2c(n1)n(C1CCOCC1)c(=O)n2C` [AZD7648] + CN(C)CCCOc1ccc(-c2ccc3ncc4c(c3c2)n(C2CCOCC2)c(=O)n4C)cn1 [AZD0156] (first compound max 10 µM, 7x7, partner max 1 µM), the Bliss excess [1] was -0.0151, the Bliss excess [2] was 0.0458 and the Bliss excess [3] was 0.0121. It also gave a Bliss excess [4] of -0.0105, a Bliss excess [5] of 0.0074 and a Bliss excess [6] of 0.0272. For the same compound, the Bliss excess [7] was 0.0429, the Bliss excess [8] was 0.0429 and the Bliss excess [9] was 0.0091. For the same compound, the Bliss excess [10] was 0.0269, the Bliss excess [11] was -0.0405 and the Bliss excess [12] was 0.0025. For the same compound, the Bliss excess (G-361 (Melanoma)) was 0.0032, the Bliss excess [13] was -0.0084 and the Bliss excess [14] was -0.0086. It also gave a Bliss excess [15] of -0.006, a Bliss excess [16] of 0.0109 and a Bliss excess (NCI-H2731 (Mesothelioma)) of -0.0326. For the same compound, the Bliss excess [17] was 0.0085 and the “combination Emax” value [18] was 0.189.

`Cc1cc2ncnn2cc1Nc1ncc2c(n1)n(C1CCOCC1)c(=O)n2C` [AZD7648] + C[C@@H]1COCCN1C2=NC(=NC(=C2)C3(CC3)[S@](=N)(=O)C)C4=C5C=CNC5=NC=C4 [AZD6738] (first compound max 10 µM, 7x7, partner max 10 µM) gave a Bliss excess [1] of 0.0153, a Bliss excess [2] of -0.0034 and a Bliss excess [3] of 0.0163. It also gave a Bliss excess [4] of 0.0116, a Bliss excess [5] of 0.0351 and a Bliss excess [6] of 0.0007. For the same compound, the Bliss excess [7] was 0.0008, the Bliss excess [8] was 0.0174 and the Bliss excess [9] was -0.0325. For the same compound, the Bliss excess [10] was 0.0146, the Bliss excess [11] was -0.0135 and the Bliss excess [12] was 0.013. The Bliss excess (G-361 (Melanoma)) was 0.0105, the Bliss excess [13] was -0.0159 and the Bliss excess [14] was 0.0005. It also gave a Bliss excess [15] of 0.038, a Bliss excess [16] of -0.0161 and a Bliss excess (NCI-H2731 (Mesothelioma)) of 0.055. For the same compound, the Bliss excess [17] was 0.0003 and the “combination Emax” value [18] was 0.361.

`Cc1cc2ncnn2cc1Nc1ncc2c(n1)n(C1CCOCC1)c(=O)n2C` [AZD7648] + O=C(c1cc(Cc2n[nH]c(=O)c3ccccc23)ccc1F)N1CCN(C(=O)C2CC2)CC1 [Olaparib] (first compound max 10 µM, 7x7, partner max 10 µM) was tested, and the Bliss excess [1] was -0.0056, the Bliss excess [2] was -0.0049 and the Bliss excess [3] was -0.0303. The Bliss excess [4] was -0.0112, the Bliss excess [5] was -0.0409 and the Bliss excess [6] was 0.0091. It also gave a Bliss excess [7] of -0.0003, a Bliss excess [8] of -0.0129 and a Bliss excess [9] of -0.0511. The Bliss excess [10] was -0.0642, the Bliss excess [11] was -0.0115 and the Bliss excess [12] was -0.0213. The Bliss excess (G-361 (Melanoma)) was -0.043, the Bliss excess [13] was 0.0239 and the Bliss excess [14] was -0.0092. The Bliss excess [15] was -0.0505, the Bliss excess [16] was -0.0263 and the Bliss excess (NCI-H2731 (Mesothelioma)) was -0.069. The Bliss excess [17] was -0.134 and the “combination Emax” value [18] was 0.229.

In the case of `NC1(C(=O)N[C@@H](CCO)c2ccc(Cl)cc2)CCN(c2ncnc3[nH]ccc23)CC1` [Capivasertib] + CC(=O)c1c(C)c2cnc(Nc3ccc(N4CCNCC4)cn3)nc2n(C2CCCC2)c1=O [Palbociclib] (first compound max 10 µM, 7x7, partner max 10 µM), the Bliss excess [1] was -0.0475, the Bliss excess [2] was -0.0671 and the Bliss excess [3] was 0.0182. For the same compound, the Bliss excess [4] was 0.0183, the Bliss excess [5] was -0.0372 and the Bliss excess [6] was 0.0287. It also gave a Bliss excess [7] of -0.0078, a Bliss excess [8] of -0.0331 and a Bliss excess [9] of -0.0171. The Bliss excess [10] was -0.0221, the Bliss excess [11] was -0.0365 and the Bliss excess [12] was -0.0242. It also gave a Bliss excess (G-361 (Melanoma)) of -0.0381, a Bliss excess [13] of -0.007 and a Bliss excess [14] of 0.0279. The Bliss excess [15] was 0.0266, the Bliss excess [16] was 0.0068 and the Bliss excess (NCI-H2731 (Mesothelioma)) was -0.0008. The Bliss excess [17] was -0.0098 and the “combination Emax” value [18] was 0.187.

`NC1(C(=O)N[C@@H](CCO)c2ccc(Cl)cc2)CCN(c2ncnc3[nH]ccc23)CC1` [Capivasertib] + CC(C)n1c(=O)n(C)c2cnc3cc(F)c(-c4ccc(OCCCN5CCCCC5)nc4)cc3c21 [AZD1390] (first compound max 10 µM, 7x7, partner max 0.3 µM) gave a Bliss excess [1] of -0.0416, a Bliss excess [2] of -0.0341 and a Bliss excess [3] of -0.0656. The Bliss excess [4] was -0.0628, the Bliss excess [5] was -0.0596 and the Bliss excess [6] was -0.0114. The Bliss excess [7] was -0.021, the Bliss excess [8] was 0.0062 and the Bliss excess [9] was -0.111. It also gave a Bliss excess [10] of 0.0071, a Bliss excess [11] of -0.0685 and a Bliss excess [12] of -0.0504. It also gave a Bliss excess (G-361 (Melanoma)) of -0.0344, a Bliss excess [13] of -0.0059 and a Bliss excess [14] of -0.0424. It also gave a Bliss excess [15] of -0.0304, a Bliss excess [16] of -0.0345 and a Bliss excess (NCI-H2731 (Mesothelioma)) of -0.0169. The Bliss excess [17] was -0.067 and the “combination Emax” value [18] was 0.195.

`NC1(C(=O)N[C@@H](CCO)c2ccc(Cl)cc2)CCN(c2ncnc3[nH]ccc23)CC1` [Capivasertib] + CCN(CCO)CCCOc1ccc2c(Nc3cc(CC(=O)Nc4cccc(F)c4)[nH]n3)ncnc2c1 [AZD2811] (first compound max 10 µM, 7x7, partner max 1 µM) was tested, and the Bliss excess [1] was -0.0363, the Bliss excess [2] was -0.0361 and the Bliss excess [3] was -0.0168. The Bliss excess [4] was 0.0475, the Bliss excess [5] was -0.03 and the Bliss excess [6] was -0.0225. The Bliss excess [7] was 0.052, the Bliss excess [8] was -0.0052 and the Bliss excess [9] was -0.0687. It also gave a Bliss excess [10] of 0.013, a Bliss excess [11] of -0.0095 and a Bliss excess [12] of -0.0088. The Bliss excess (G-361 (Melanoma)) was 0.0426, the Bliss excess [13] was -0.103 and the Bliss excess [14] was -0.0597. It also gave a Bliss excess [15] of -0.0428, a Bliss excess [16] of 0.0151 and a Bliss excess (NCI-H2731 (Mesothelioma)) of 0.0438. The Bliss excess [17] was -0.0086 and the “combination Emax” value [18] was 0.304.
